2 compounds from article PMC3164320 (Journal of medicinal chemistry, 2011) can be followed below.

SMILES strings stand for the structures.

This assay relates to HIV-1LAI. The experiment in a line: Antiviral MTT assay in MT-2 cells exposed to HIV-1LAI. It counts as cell-based.

Regarding `CC(C)CN(C[C@@H](O)[C@H](Cc1ccccc1)NC(=O)O[C@@H]1C[C@@H]2[C@H](O)CO[C@@H]2C1)S(=O)(=O)c1ccc(N)cc1` [Inhibitor 23, (3S,3aR,5R,6aR)-3-Hydroxyhexahydro-2H-cyclopenta[b]furan-5-yl [(2S,3R)-4-(4-Amino-N-isobutylphenylsulfonamido)-3-hydroxy-1-phenylbutan-2-yl]carbamate], the “fold loss of antiviral activity compared to 22” value turned out to be 3 fold. Consider `COc1ccc(S(=O)(=O)N(CC(C)C)C[C@@H](O)[C@H](Cc2ccccc2)NC(=O)O[C@@H]2C[C@@H]3[C@H](OC)CO[C@@H]3C2)cc1` [Inhibitor 25, (3S,3aS,5R,6aR)-3-Methoxyhexahydro-2H-cyclopenta[b]furan-5-yl [(2S,3R)-3-Hydroxy-4-(N-iso-butyl-4-methoxyphenylsulfonamido)-1-phenylbutan-2-yl]carbamate], for which the “fold loss of antiviral activity compared to 22” value is roughly 5 fold.
